Positions of bridges follow the written chain, without caps; N, C: chain ends. No end group written: not given here.

Assay [1] relates to 5T33MM cells. Description: In vitro cell binding of FITC-conjugated peptides by flow cytometry. The format is cell-based, murine. As to conditions: 10 min on ice, Fig. 2b. As to the method: (§1) Cultured 5T33MM, A20 and IM9 cells as well as primary B cells from MM patient and healthy donor were washed and suspended at the density of 10^6 cells/ml in FACs Flow Buffer [BD Biosciences]. All subsequent washing and incubations were carried out in the same buffer on ice. Cells were incubated with 20 μg/ml of FITC-conjugated peptides for 10 min on ice, then washed twice, and analyzed by flow cytometry [FACSCalibur, BD Biosciences]. For peptide co-localization with the BCR complex, 5T33MM cells (10^6 cells/ml) were stained with FITC-conjugated peptides [10 μg/ml) and goat anti-mouse IgG-Alexa fluor 568 [Thermo Fisher]. After extensive washing, cells were mounted under cover slip, and visualized by confocal microscopy [Leica TC-SP2].

Assay [2] has as its system 5T33MM-derived exosomes. Nature of the assay: Exosome immunocapture (anti-CD63 SMNPs) and flow cytometry, 5T33MM-derived exosomes. The format is binding, murine. As to conditions: exosomes from cell supernatant trapped on anti-CD63 SMNPs; FITC-conjugated reagent; Fig. 4. As to the method:
(§2) Exosomes were isolated from 250 μL of blood and 10 mL of cell supernatant respectively using ExoQuick solutions [System Biosciences – SBI, Palo Alto, California, US] and ExoQuick-TC™ [System Biosciences], according to the manufacturer’s protocol. Briefly, serum and cell supernatants were centrifuged at 3000×g for 15 min to remove cells and cell debris. The supernatant was transferred to a sterile vessel and the recommended volume of ExoQuick solution or ExoQuick-TC™ were added to the bio-fluids. After brief vortex, samples were stored 30 min at 4 °C and then centrifuged at 1500 x g for 30 min at room temperature. After removing the supernatant, the pellet was suspended in nuclease-free water.
(§3) Isolated exosomes from serum or cell supernatants were suspended in 1 ml of 1X PBS. Exosome aliquots (500 μl) were labeled with 50 μl of 10X Exo-Red [SBI] according to manufacturer’s instructions. The exosomes were re-isolated using the addition of 100 μl ExoQuick followed by precipitation for 30 min at +4 °C. The labeled exosome pellet was suspended in 500 μl 1X PBS and stained with CD63-coupled magnetic beads provided by SBI’s Exo-Flow IP kit [SBI] and with the FITC-conjugated peptides.
(Flow cytometry measures light scatter and fluorescence of single cells or particles in a stream.)

In assay [3] the test system is IM9-derived exosomes. Nature of the assay: Exosome immunocapture (anti-CD63 SMNPs) and flow cytometry, IM9-derived exosomes. To be noted: exosomes trapped on anti-CD63 SMNPs; FITC-conjugated p5 peptide; Fig. 4. It counts as binding, human. As to the method: as §2, §3
The subject of assay [4] is A20-derived exosomes. Description: Exosome immunocapture (anti-CD63 SMNPs) and flow cytometry, A20-derived exosomes. It counts as binding, murine. As to conditions: exosomes trapped on anti-CD63 SMNPs; FITC-conjugated p5 peptide; Fig. 4. As for the experimental part: as §2, §3
For assay [5], the system named is A20 secreted IgG. Description: ELISA binding of biotinylated peptide to control A20 secreted IgG. More on the design: species or system murine. To be noted: biotinylated-p5 peptide; control Ig; Fig. 2a. As for the experimental part: (§4) Single strand DNA (ssDNA) was extracted from the selected phage clones by phenol/chlorophorm purification followed by ethanol precipitation. DNA fragment codifying the peptide ligand was amplified by PCR and sequenced to get the primary structure of amino acid sequence for the peptide synthesis. Synthesized peptides were purchased from Caslo Laboratory ApS [Caslo, Kongens Lyngby, DE]. The specific binding of peptides to the 5T33MM sIgG was analyzed by ELISA, as follows. Streptavidin coated 96 well plates were washed extensively and supplemented with biotin-conjugated peptides by 1 h-incubation at 37 °C; then, after washing and blocking with blocking solution (1X PBS, 0.05% Tween-20, 5% milk), aliquots of 5T33MM sIgG (1 μg/ml in blocking buffer) were added overnight at 4 °C. Wells were extensively washed and coated with the anti-mouse IgG (Fc-specific) alkaline phosphatase-conjugated [Sigma Aldrich] for 1 h at 37 °C, incubated with the alkaline phosphatase substrate [Sigma Aldrich], and analyzed by an ELISA reader at 405 nm [Labsystems multiscan MS].
(§5) The random peptide insert was flanked by a pair of cysteines resulting in cyclized peptide exposed on M13 coat protein. After three rounds of affinity selection, single phage clones were purified and tested by enzyme-linked immunosorbent assay (ELISA) for binding to the 5T33MM Igs or control Igs, as previously described. […]

The subject of assay [6] is 5T33MM cells. Description: Confocal microscopy of FITC-conjugated peptide co-localization with the BCR complex. The format is cell-based, murine. To be noted: FITC-conjugated p5 peptide, non-permeabilized cells, anti-mouse IgG co-staining; Fig. 2c. As to the method:
as §1

The subject of assay [7] is polyclonal mouse Igs. Description: ELISA binding of biotinylated peptide to control polyclonal mouse Igs. As to conditions: biotinylated-p5 peptide, Fig. 2a. As to the method:
as §4, §5
On the technique in general: An ELISA detects its analyte on a solid surface through an enzyme-linked reagent.

Assay [8] deals with mIg-5T33MM. Description: ELISA binding of biotin-conjugated Id-peptides to 5T33MM Ig (Scatchard plot analysis). More on the design: species or system murine. As to conditions: biotinylated-p5 peptide at different concentrations; Fig. 2a. As for the experimental part:
as §4, §5

For “CGGNGPGLC [pCNT, irrelevant peptide (…) included as a negative control, FITC-conjugated, reference compound]”, in assay [1], the “recognition of 5T33MM target cells by flow cytometry” value is reported as “did not”. The “detection of 5T33MM-derived exosomes by flow cytometry” value in assay [2] is given as “undetected”.
For the sequence “CIGNSNTLC (disulfide 1-9 (inferred)) [p5, used biotinylated or FITC-conjugated]”, in assay [3], the “detection of exosomes released from human IM9 multiple myeloma cells” value was “did not detect”. In addition, the “detection of exosomes released from murine A20 B-lymphoma cells” value in assay [4] is on record as “did not detect”. For the same sequence, the “reactivity against A20 secreted IgG by ELISA” value in assay [5] is “did not react”. Also, the “recognition of 5T33MM target cells by flow cytometry” value in assay [1] is given as “recognized 5T33MM target cells in a dose-dependent manner”. In assay [2], the “detection of 5T33MM-derived exosomes by flow cytometry” value is “equally detected”. For the same sequence, the “localization on 5T33MM cells by confocal microscopy” value in assay [6] is “bound to the 5T33MM cell surface and also localized inside the cells”. The “reactivity against polyclonal mouse Igs by ELISA” value in assay [7] is “did not react”. The “reactivity to the cognate antibody (5T33MM-Igs) by ELISA” value in assay [8] is “concentration-dependent specific reactivity”.

(Values after article PMC5640902, “Monitoring multiple myeloma by idiotype-specific peptide binders of tumor-derived exosomes” (Molecular Cancer, 2017).)
